# According to patent publication US8507489B2, “Bicyclic triazoles as protein kinase modulators” (SGX Pharmaceuticals, Inc., priority 2006, dated 2013):
# Assays:
# TPR-MET Ba/F3 cells = target: T1, TPR-MET Ba/F3 cells (Homo sapiens, UniProt P08581); test: 96-well XTT cell survival assay (Ba/F3 cells); format: cell-based; settings: cells marked (BaF3), 72 hours; read-out: XTT Assay IC50 (BaF3)
# T1 construct: TPR-MET Ba/F3 cells were created by stably transducing the human TPR-MET gene into Ba/F3 cells using a retroviral system; fused on or other part: P12270 (Nucleoprotein TPR)
# T1 sequence (P08581 whole entry, change not shown, the tested form may be a part): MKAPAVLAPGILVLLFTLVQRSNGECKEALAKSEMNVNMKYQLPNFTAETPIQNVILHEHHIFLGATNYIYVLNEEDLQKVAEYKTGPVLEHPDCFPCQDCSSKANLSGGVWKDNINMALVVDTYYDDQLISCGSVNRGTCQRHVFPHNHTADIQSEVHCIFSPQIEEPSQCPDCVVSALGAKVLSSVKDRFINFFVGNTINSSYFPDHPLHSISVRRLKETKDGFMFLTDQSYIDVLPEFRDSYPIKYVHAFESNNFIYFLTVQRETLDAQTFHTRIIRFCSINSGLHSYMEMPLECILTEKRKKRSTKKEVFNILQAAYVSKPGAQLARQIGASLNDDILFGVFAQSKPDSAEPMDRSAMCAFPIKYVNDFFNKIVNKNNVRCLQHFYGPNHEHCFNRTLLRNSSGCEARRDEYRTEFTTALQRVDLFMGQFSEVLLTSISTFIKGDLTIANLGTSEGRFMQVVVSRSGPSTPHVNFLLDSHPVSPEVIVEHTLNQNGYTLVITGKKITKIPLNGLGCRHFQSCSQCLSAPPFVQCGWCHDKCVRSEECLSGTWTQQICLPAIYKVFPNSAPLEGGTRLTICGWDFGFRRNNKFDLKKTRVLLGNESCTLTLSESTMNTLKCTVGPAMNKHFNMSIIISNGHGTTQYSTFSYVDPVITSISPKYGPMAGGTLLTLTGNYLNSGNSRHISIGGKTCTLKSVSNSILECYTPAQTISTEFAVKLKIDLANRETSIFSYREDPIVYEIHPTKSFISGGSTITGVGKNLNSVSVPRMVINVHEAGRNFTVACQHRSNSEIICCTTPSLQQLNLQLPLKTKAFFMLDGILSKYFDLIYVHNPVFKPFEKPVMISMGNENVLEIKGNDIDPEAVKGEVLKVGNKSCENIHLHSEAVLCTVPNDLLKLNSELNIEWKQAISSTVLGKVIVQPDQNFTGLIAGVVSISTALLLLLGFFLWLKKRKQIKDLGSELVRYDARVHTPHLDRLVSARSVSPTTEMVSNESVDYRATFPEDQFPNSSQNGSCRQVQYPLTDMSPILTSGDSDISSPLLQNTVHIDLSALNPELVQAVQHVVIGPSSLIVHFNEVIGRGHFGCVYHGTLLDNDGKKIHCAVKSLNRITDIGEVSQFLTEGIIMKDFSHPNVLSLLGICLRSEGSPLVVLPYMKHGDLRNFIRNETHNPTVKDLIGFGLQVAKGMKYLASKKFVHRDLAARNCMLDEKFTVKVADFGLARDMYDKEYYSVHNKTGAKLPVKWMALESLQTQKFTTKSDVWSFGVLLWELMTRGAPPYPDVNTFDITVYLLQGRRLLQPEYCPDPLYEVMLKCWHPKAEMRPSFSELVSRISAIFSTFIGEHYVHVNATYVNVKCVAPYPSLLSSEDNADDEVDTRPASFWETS
# Protocol: TPR-MET Ba/F3 cells were created by stably transducing the human TPR-MET gene into Ba/F3 cells using a retroviral system. All cell lines were grown in RPMI-1640 supplemented with 1× penicillin/streptomycin and 10% fetal bovine (Invitrogen, Carlsbad, Calif.). The cells were maintained in a 5% CO2 humidified incubator at 37° C.
# Compounds were tested in the following assays in duplicate.
# 96-well XTT assay (Ba/F3 cells): Cells were grown in growth media containing various concentrations of compounds (duplicates) on a 96-well plate for 72 hours at 37° C. The starting cell number was 5000-8000 cells per well and volume was 120 μl. At the end of the 72-hour incubation, 40 μl of XTT labeling mixture (50:1 solution of sodium 3′-[1-(phenylamino-carbonyl)-3,4-tetrazolium]-bis(4-methoxy-6-nitro) benzene sulfonic acid hydrate and Electron-coupling reagent: PMS (N-methyl dibenzopyrazine methyl sulfate) were added to each well of the plate. After an additional 2-6 hours of incubation at 37° C., the absorbance reading at 405 nm with background correction at 650 nm was measured with a spectrophotometer.
# c-MET = c-MET (Homo sapiens, UniProt P08581); test: MET luminescence-based enzyme assay (Kinase-Glo); format: biochemical
# Chain of c-MET (P08581 1078-1345 limits assumed): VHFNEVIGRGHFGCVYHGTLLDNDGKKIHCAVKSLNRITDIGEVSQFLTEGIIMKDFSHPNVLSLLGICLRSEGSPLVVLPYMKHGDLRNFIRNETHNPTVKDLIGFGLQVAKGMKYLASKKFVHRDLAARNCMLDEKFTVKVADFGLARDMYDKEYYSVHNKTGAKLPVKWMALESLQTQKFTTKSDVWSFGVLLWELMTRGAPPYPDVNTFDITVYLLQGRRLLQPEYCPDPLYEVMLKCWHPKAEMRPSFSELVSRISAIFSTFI
# Protocol: The subscript designates positive or negative controls. The Z′ score for a robust screening assay should be ≧0.50. The typical threshold=μ+−3*σ+. Any value that falls below the threshold was designated a “hit”.
# MET Luminescence-Based Enzyme Assay
# MET kinase (see below), Kinase-Glo™ (Promega Cat#V6712).
# Negative controls contained 10 μM staurosporine.
SMILES,IC50 (c-MET) [nM],GI50 (TPR-MET Ba/F3 cells) [nM]
CNC(=O)c1ccc(-c2ccc3nnc(Sc4cc5scnc5cc4F)n3n2)cc1F [Compound 20],< 100,≤ 100
"N#Cc1cccc(-c2ccc3nnc(Sc4cc5cccnc5cc4F)n3n2)c1 [Compound 23, 3-[3-(7-Fluoro-quinolin-6-ylsulfanyl)-[1,2,4]triazolo[4,3-b]pyridazin-6-yl]-benzonitrile]",< 100,≤ 100
"CNC(=O)c1ccc(-c2ccc3nnc(Sc4ccc5ncn(C)c5c4)n3n2)cc1F [Compound 19, 2-Fluoro-N-methyl-4-[3-(3-methyl-3H-benzoimidazol-5-ylsulfanyl)-[1,2,4]triazolo[4,3-b]pyridazin-6-yl]-benzamide]",< 100,≤ 100

# Now from value to compound, other results behind:
IC50 (c-MET) [nM],SMILES,GI50 (TPR-MET Ba/F3 cells) [nM]
< 100,"N#Cc1cccc(-c2ccc3nnc(Sc4ccc5ncsc5c4)n3n2)c1 [Compound 22, 3-[3-(Benzothiazol-6-ylsulfanyl)-[1,2,4]triazolo[4,3-b]pyridazin-6-yl]-benzonitrile]",100 to 1000
< 100,"N#Cc1cccc(-c2ccc3nnc(Sc4ccc5ncccc5c4)n3n2)c1 [Compound 21, 3-[3-(Quinolin-6-ylsulfanyl)-[1,2,4]triazolo[4,3-b]pyridazin-6-yl]-benzonitrile]",≤ 100
